Test results published in BindingDB's records for doi:10.1016/j.bmcl.2013.04.070 (2013).

Target: Presenilin-1 (Homo sapiens, UniProt P49768)
Assay: Modulation of human gamma-secretase presenilin-1 subunit expressed in CHO cells coexpressing human APP assessed as decrease in amyloid beta 42 generation after 24 hrs by ELISA

CCCCCCCCOC(=O)C1(C)CCc2c(C)c(OCC(=O)O)c(C)c(C)c2O1 (stereo unspecified)
IC50: 31.6 µM
